Test results as given in patent US20090123979A1, “Methods of reducing the inhibitory effect of a tannin on the enzymatic hydrolysis of cellulosic material” (Novozymes, Inc., priority 2007, published 2009).
Like-named read-outs stand apart in the source and are kept apart here.

How the values were obtained:
[1] = target: T1, Cellulolytic Enzyme Composition #2; assay: PCS hydrolysis by Cellulolytic Enzyme Composition #2 with added compounds; format: biochemical, Trichoderma reesei; conditions: for Ki: PCS hydrolysis, Cellulolytic Enzyme Composition #2
T1 construct: Dixon plot linear regression intercept (1/Rate); other: PCS; rate from hydrolysis difference (%) at 0 and 5 hours; rate from hydrolysis difference (%); Ki (x-intercept of Dixon plot); other: PCS hydrolysis, Cellulolytic Enzyme Composition #2; OPC flavonol-equivalent; Ki expressed as galloyl constituents; oth; fused on or other part: In one component the Humicola insolens endoglucanase V (CEL45A) core is fused in front of the A. oryzae beta-glucosidase
Procedure: (§1) Corn stover was pretreated at the U.S. Department of Energy National Renewable Energy Laboratory (NREL), […], Colo., USA, using dilute sulfuric acid. The following conditions were used for the pretreatment: 1.4 wt % sulfuric acid at 195° C. for 4.5 minutes. According to limit digestion with excess cellulase enzymes, the water-insoluble solids in the pretreated corn stover (PCS) contained 59.5% cellulose. Prior to use, the PCS was washed with a large volume of deionized water until soluble acid and sugars were removed. The dry weight of the water-washed PCS was 19.16%.
(§2) The effect of a mixture of tannic acid, ellagic acid, epicatechin, and six lignin constituent compounds (4-hydroxyl-2-methylbenzoic acid, vanillin, coniferyl alcohol, coniferyl aldehyde, ferulic acid, and syringaldehyde) was determined on the hydrolysis of PCS by Cellulolytic Enzyme Composition #1 or Cellulolytic Enzyme Composition #2. […] Cellulolytic Enzyme Composition #1 or Cellulolytic Enzyme Composition #2 was added at 0.25 g per liter. Reactions without the addition of the compounds served as controls. The capped tubes were incubated at 50° C. in an INNOVA® 4080 incubator shaker (New Brunswick Scientific Co., Inc., Edison, N.J., USA) at 150 rpm.
(§3) Aliquots of the suspensions, sampled over time, were filtered by centrifugation using a 0.45 μm MULTISCREEN® HV membrane (Millipore, Billerica, Mass., USA) at 2000 rpm for 15 minutes using a SORVALL® RT7 centrifuge (Thermo Fisher Scientific, Waltham, Mass., USA). When not used immediately, the filtered aliquots were frozen at −20° C. Sugar concentrations of the samples diluted in 0.005 M H2SO4 were measured after elution by 0.005 M H2SO4 at a flow rate of 0.4 ml/minute from a 4.6×250 mm AMINEX® HPX-87H column (Bio-Rad, Hercules, Calif., USA) at 65° C. with quantitation by integration of glucose and cellobiose using refractive index detection (CHEMSTATION®, AGILENT® 1100 HPLC, Agilent Technologies, Santa Clara, Calif., USA) calibrated with standards of glucose and cellobiose. The resultant equivalents were used to calculate the percentage of cellulose conversion for each reaction.
(§4) The degree of cellulose conversion to glucose plus cellobiose sugars (conversion, %) was calculated using the following equation:
(§5) Conversion(%)=(glucose+cellobiose×1.053)(mg/ml)×100×162/cellulose(mg/ml)×180)=(glucose+cellobiose×1.053)(mg/ml)×100/(cellulose(mg/ml)×1.111)
(§6) In this equation the factor 1.111 reflects the weight gain in converting cellulose to glucose, and the factor 1.053 reflects the weight gain in converting cellobiose to glucose. Cellulose in PCS was determined by a limit digest of PCS to release glucose and cellobiose.
(§7) Example 30 was repeated except that each compound was tested separately. […] Reactions without the addition of each compound served as controls.
(§8) The effect of OPC or flavonol on the hydrolysis of PCS by Cellulolytic Enzyme Composition #1 or Cellulolytic Enzyme Composition #2 was determined according to the procedure described in Example 30. OPC and flavonol were present at a concentration of 1 mM. Reactions without the addition of the compounds served as controls.
The effective inhibitory concentration range for tannic acid and OPC was also determined by the “mini-scale” hydrolysis described in Example 30 with Cellulolytic Enzyme Composition #2. The concentration of tannic acid ranged from 0.1 mM to 1 mM, while the concentration of OPC ranged from 0.1 mM to 10 mM. Reactions without the addition of the tannic compounds served as controls.
However, prior to the addition of Cellulolytic Enzyme Composition #2, the mixture of PCS or OPC and tannic acid was treated with Aspergillus oryzae tannase (Novozymes A/S, Bagsværd, Denmark) at 10% of the final protein level for 30 minutes. Reactions without addition of the tannic acid, OPC, or tannase served as controls.

[2] = test system: T2, Cellulolytic Enzyme Composition #1; assay: PCS hydrolysis by Cellulolytic Enzyme Composition #1 with added compounds; format: biochemical, Trichoderma reesei
T2 construct: other: PASC hydrolysis; mean ± SD; 0.01 g enzyme; Dixon plot linear regression intercept (1/Rate); other: AVICEL; rate from hydrolysis difference (%) at 0 and 6 hours; rate from hydrolysis difference; fused on or other part: The A. oryzae beta-glucosidase is the mature chain secreted behind the Humicola insolens endoglucanase V signal peptide, which is cleaved off
Procedure: as §1, §2, §3, §4, §5, §6, §7, §8
Methyl gallate and ellagic acid were compared at 10 mM to 1 mM tannic acid in the hydrolysis of PCS by Cellulolytic Enzyme Composition #1.

[3] = PCS, rate from hydrolysis difference (%) at 0 and 5 hours
[4] = 50 g PCS, 0.25 g enzyme per liter, methyl gallate and ellagic acid 10 mM, tannic acid 1 mM

O=C(OC[C@H]1O[C@@H](OC(=O)c2cc(O)c(O)c(OC(=O)c3cc(O)c(O)c(O)c3)c2)[C@H](OC(=O)c2cc(O)c(O)c(OC(=O)c3cc(O)c(O)c(O)c3)c2)[C@@H](OC(=O)c2cc(O)c(O)c(OC(=O)c3cc(O)c(O)c(O)c3)c2)[C@@H]1OC(=O)c1cc(O)c(O)c(OC(=O)c2cc(O)c(O)c(O)c2)c1)c1cc(O)c(O)c(OC(=O)c2cc(O)c(O)c(O)c2)c1 [tannic acid, Tannic acid]
Ki ([1]; OPC flavonol-equivalent, read-out: Ki (x-intercept of Dixon plot)): ~180 µM | Ki ([1]; corresponding galloyl constituents, read-out: Ki expressed as galloyl constituents): 1800 µM | Dixon plot linear regression intercept (1/Rate) [1, 3]: 0.018±0.005 | Dixon plot linear regression slope (1/Rate vs inhibitor concentration) [1, 3]: 0.098±0.009 | concentration dependence of inhibition of PCS hydrolysis ([1]; tannic acid 0.1 mM to 1 mM, OPC 0.1 mM to 10 mM, 43 g PCS and 0.25 g enzyme per liter): increasingly inhibitory | effect on hydrolysis of PCS by Cellulolytic Enzyme Composition #1 ([2]; 1 mM each compound, 43.4 g PCS and 0.25 g enzyme per liter, pH 5.0, 50° C.): significantly inhibited | loss in initial rate of PCS hydrolysis [2, 4]: ~70% | loss in the extent of PCS hydrolysis at day 4 [2, 4]: ~60%
